Experimental data reported in patent US11427869B2, “T cell balance gene expression, compositions of matters and methods of use thereof” (THE BROAD INSTITUTE, INC., priority 2015, dated 2022).

Tested on: CD5L−/− Th17 cells
Experiment: Nanostring nCounter Th17 codeset (312 genes), PUFA- or control-treated CD5L−/− Th17 cells
Assay type: cell-based, mouse
Text: Applicants studied the contribution of lipid saturation to Th17 cell pathogenicity. […] Applicants analyzed the expression of a 312 gene signature of Th17 cell differentiation and function (Yosef et al., 2013) in SFA- or control-treated WT Th17 cells and in PUFA- or control-treated CD5L−/− Th17 cells differentiated with TGF-81+IL-6.
T cell differentiation culture. Naïve CD4+CD44−CD62L+CD25− T cells or Effector memory CD4+CD44+CD62L− were sorted using BD FACSAria sorter and activated with plate-bound anti-CD3 and anti-CD28 antibodies (both at 2 μg/ml) in the presence of cytokines at a concentration of 2.5×10^5 cells/ml. For Th17 differentiation: 2 ng/ml of rhTGFβ1, 2 ng/ml of rhTGFβ3, 25 ng/ml rmIL-6, 20 ng/ml rmIL-18 (all from Miltenyi Biotec) and 20 ng/ml rmIL-23 (R & D systems) were used at various combinations as specified in figures. For Th1 differentiation, 20 ng/ml rmIL-12 (R & D systems); for Th2 differentiation 20 ng/ml rmIL-4 (Miltenyi Biotec); for iTreg differentiation, 2.5 ng/ml of rhTGFβ1 were used (Miltenyi Biotec). For differentiation experiments, cells were harvested at 48 hours. For restimulation experiments, cells were differentiated for 48 hours and resuspended in fresh media with no additional cytokines for 48-72 hours. Cells were re-stimulated with PMA/ionomycin for four hours before analysis for cytokines by intracellular cytokine staining. For experiments with exogenous fatty acid, fatty acids were purchased and resuspended first with serum-free media containing BSA prior being added to culture.
Nanostring nCounter. Nanostring nCounter platform (NanoString Technologies) is used to measure the number of RNA transcripts in RNA samples (FIG. 16I, FIG. 18D). A codeset containing 312 signature genes of Th17 cell differentiation and function as well as 4 additional house-keeping genes were custom-made (Yosef et al., 2013) and used in these experiments. Experimental procedures as detailed by the manufacturer is strictly followed.

## CCCCC/C=C\C/C=C\C/C=C\C/C=C\CCCC(=O)O [PUFA, arachidonic acid]
CD5LKO Th17 cells + PUFA
  ATF2 expression (Nanostring), normalized to WT: 0.89
  Abcg2 expression (Nanostring), normalized to WT: 1.20
  Acvr2a expression (Nanostring), normalized to WT: 1.32
  Ahr expression (Nanostring), normalized to WT: 1.08
  Arl5a expression (Nanostring), normalized to WT: 1.33
  Atf4 expression (Nanostring), normalized to WT: 0.73
  BC021614 expression (Nanostring), normalized to WT: 1.04
  Bcl2l11 expression (Nanostring), normalized to WT: 0.71
  Bcl3 expression (Nanostring), normalized to WT: 1.13
  Bcl11b expression (Nanostring), normalized to WT: 1.03
  Bhlhe40 expression (Nanostring), normalized to WT: 0.70
  Casp3 expression (Nanostring), normalized to WT: 0.71
  Casp4 expression (Nanostring), normalized to WT: 1.52
  Ccl1 expression (Nanostring), normalized to WT: 0.67
  Ccl20 expression (Nanostring), normalized to WT: 0.84
  Ccr4 expression (Nanostring), normalized to WT: 1.69
  Ccr8 expression (Nanostring), normalized to WT: 0.71
  Cd9 expression (Nanostring), normalized to WT: 1.27
  Cd70 expression (Nanostring), normalized to WT: 0.77
  Cd83 expression (Nanostring), normalized to WT: 0.88
  Cd86 expression (Nanostring), normalized to WT: 1.73
  Cd247 expression (Nanostring), normalized to WT: 1.32
  Clcf1 expression (Nanostring), normalized to WT: 1.25
  Csf2 expression (Nanostring), normalized to WT: 1.20
  Ctla4 expression (Nanostring), normalized to WT: 1.63
  Cxcl10 expression (Nanostring), normalized to WT: 1.64
  Cxcr3 expression (Nanostring), normalized to WT: 1.44
  Cxcr4 expression (Nanostring), normalized to WT: 0.87
  Cxcr5 expression (Nanostring), normalized to WT: 1.42
  EBF1 expression (Nanostring), normalized to WT: 1.64
  Egr2 expression (Nanostring), normalized to WT: 1.64
  Elk3 expression (Nanostring), normalized to WT: 1.04
  Ercc5 expression (Nanostring), normalized to WT: 0.66
  Etv6 expression (Nanostring), normalized to WT: 1.70
  Faim3 expression (Nanostring), normalized to WT: 1.31
  Fli1 expression (Nanostring), normalized to WT: 1.35
  Flna expression (Nanostring), normalized to WT: 1.10
  Foxo1 expression (Nanostring), normalized to WT: 1.03
  Foxp1 expression (Nanostring), normalized to WT: 1.25
  Foxp3 expression (Nanostring), normalized to WT: 1.22
  Frmd4b expression (Nanostring), normalized to WT: 1.28
  Fxd7 expression (Nanostring), normalized to WT: 0.72
  Gap43 expression (Nanostring), normalized to WT: 0.68
  Gem expression (Nanostring), normalized to WT: 0.73
  Gimap5 expression (Nanostring), normalized to WT: 1.58
  Gja1 expression (Nanostring), normalized to WT: 0.66
  Gmfg expression (Nanostring), normalized to WT: 0.76
  Grn expression (Nanostring), normalized to WT: 1.16
  Gusb expression (Nanostring), normalized to WT: 0.94
  Hip1r expression (Nanostring), normalized to WT: 0.89
  IL-33 expression (Nanostring), normalized to WT: 0.66
  Ifih1 expression (Nanostring), normalized to WT: 1.25
  Ifng expression (Nanostring), normalized to WT: 0.93
  Ikzf3 expression (Nanostring), normalized to WT: 1.06
  Il1r1 expression (Nanostring), normalized to WT: 1.36
  Il2ra expression (Nanostring), normalized to WT: 0.99
  Il3 expression (Nanostring), normalized to WT: 1.45
  Il4ra expression (Nanostring), normalized to WT: 1.13
  Il6st expression (Nanostring), normalized to WT: 0.89
  Il7r expression (Nanostring), normalized to WT: 1.37
  Il10 expression (Nanostring), normalized to WT: 1.01
  Il10ra expression (Nanostring), normalized to WT: 0.95
  Il12rb1 expression (Nanostring), normalized to WT: 0.80
  Il12rb2 expression (Nanostring), normalized to WT: 1.60
  Il17a expression (Nanostring), normalized to WT: 1.11
  Il17f expression (Nanostring), normalized to WT: 0.71
  Il21 expression (Nanostring), normalized to WT: 0.97
  Il23r expression (Nanostring), normalized to WT: 1.11
  Il27ra expression (Nanostring), normalized to WT: 1.55
  Inhba expression (Nanostring), normalized to WT: 0.81
  Irf4 expression (Nanostring), normalized to WT: 0.65
  Irf7 expression (Nanostring), normalized to WT: 1.17
  Irf8 expression (Nanostring), normalized to WT: 1.29
  Itga3 expression (Nanostring), normalized to WT: 0.76
  Jak3 expression (Nanostring), normalized to WT: 1.27
  Jun expression (Nanostring), normalized to WT: 0.64
  Kat2b expression (Nanostring), normalized to WT: 1.22
  Klf9 expression (Nanostring), normalized to WT: 0.75
  Klf10 expression (Nanostring), normalized to WT: 1.30
  Klrd1 expression (Nanostring), normalized to WT: 0.63
  Lad1 expression (Nanostring), normalized to WT: 1.18
  Lgals3bp expression (Nanostring), normalized to WT: 1.34
  Litaf expression (Nanostring), normalized to WT: 0.61
  Lpxn expression (Nanostring), normalized to WT: 1.39
  Maf expression (Nanostring), normalized to WT: 0.84
  Maff expression (Nanostring), normalized to WT: 0.77
  Map3k5 expression (Nanostring), normalized to WT: 1.49
  Mbnl3 expression (Nanostring), normalized to WT: 1.30
  Mina expression (Nanostring), normalized to WT: 1.08
  Mt1 expression (Nanostring), normalized to WT: 0.79
  Mt2 expression (Nanostring), normalized to WT: 0.84
  Nfkbie expression (Nanostring), normalized to WT: 1.52
  Nkg7 expression (Nanostring), normalized to WT: 1.40
  Notch2 expression (Nanostring), normalized to WT: 1.20
  Oas2 expression (Nanostring), normalized to WT: 0.82
  Peli2 expression (Nanostring), normalized to WT: 0.83
  Plac8 expression (Nanostring), normalized to WT: 0.85
  Plagl1 expression (Nanostring), normalized to WT: 1.07
  Pmepa1 expression (Nanostring), normalized to WT: 1.19
  Pou2af1 expression (Nanostring), normalized to WT: 0.86
  Prkd3 expression (Nanostring), normalized to WT: 1.51
  Pstpip1 expression (Nanostring), normalized to WT: 1.24
  Rab33a expression (Nanostring), normalized to WT: 1.50
  Rasgrp1 expression (Nanostring), normalized to WT: 1.21
  Rel expression (Nanostring), normalized to WT: 0.73
  Rela expression (Nanostring), normalized to WT: 0.96
  Rfk expression (Nanostring), normalized to WT: 1.07
  Rorc expression (Nanostring), normalized to WT: 1.52
  Sap30 expression (Nanostring), normalized to WT: 0.81
  Sema7a expression (Nanostring), normalized to WT: 1.04
  Serpinb1a expression (Nanostring), normalized to WT: 0.77
  Ski expression (Nanostring), normalized to WT: 0.86
  Slc6a6 expression (Nanostring), normalized to WT: 1.03
  Smad3 expression (Nanostring), normalized to WT: 1.03
  Socs3 expression (Nanostring), normalized to WT: 1.38
  Spp1 expression (Nanostring), normalized to WT: 0.66
  Spry1 expression (Nanostring), normalized to WT: 1.02
  Stat4 expression (Nanostring), normalized to WT: 1.21
  Stat5b expression (Nanostring), normalized to WT: 1.19
  Stat6 expression (Nanostring), normalized to WT: 1.13
  Sult2b1 expression (Nanostring), normalized to WT: 0.61
  Tal2 expression (Nanostring), normalized to WT: 1.52
  Tcf4 expression (Nanostring), normalized to WT: 1.29
  Tgfb1 expression (Nanostring), normalized to WT: 0.68
  Tgfb3 expression (Nanostring), normalized to WT: 1.67
  Tgfbr3 expression (Nanostring), normalized to WT: 0.94
  Tgm2 expression (Nanostring), normalized to WT: 1.51
  Tmem229b expression (Nanostring), normalized to WT: 1.52
  Tnfrsf4 expression (Nanostring), normalized to WT: 1.05
  Tnip2 expression (Nanostring), normalized to WT: 0.78
  Trat1 expression (Nanostring), normalized to WT: 0.85
  Trim25 expression (Nanostring), normalized to WT: 1.17
  Trps1 expression (Nanostring), normalized to WT: 1.44
  Tsc22d3 expression (Nanostring), normalized to WT: 0.66
  Ubiad1 expression (Nanostring), normalized to WT: 1.16
  Vav3 expression (Nanostring), normalized to WT: 1.20
  Xrcc5 expression (Nanostring), normalized to WT: 1.27
  nrp1 expression (Nanostring), normalized to WT: 0.90
  pou2f1 expression (Nanostring), normalized to WT: 0.66
PUFA-treated CD5L−/− Th17 cells, TGF-β1+IL-6
  transcriptional signature (312 gene Th17 codeset, genes >1.5 fold): resemble WT non-pathogenic Th17 cells
